From patent US20050250853A1, “Beta-tubulin inhibitors” (priority 1999, published 2005)
Entries after “also recorded” stand apart in the source; their conditions may differ. Marks after values point to notes of the source that are not given here.

How the values were obtained:
β-tubulin [1] = assay: Separation of soluble and polymerized tubulins, Western blot of β-tubulin; format: cell-based, human; conditions: MDA-MB-231 cells, 30 μM, 24 h and 48 h; for formation of modified β-tubulin (second immunoreactive band of lower Mr): free tubulin fraction
Procedure: FIG. 2. Effects of CEU derivatives on microtubule depolymerization. Exponentially growing MDA-MB-231 cells were incubated in the absence or the presence of 30 μM of CEU derivatives including (A) 4-tBCEU, 4-iPCEU or 4-sBCEU for 24 and 48 h respectively; (B) 2-ECEU, 3-ECEU or 4-ECEU for 24 and 48 h; and (C) 4-tBEU, 4-iPEU, 4-sBEU, 4-tBCPU, CEU or 4-methoxyCEU for 48 h. Free tubulin and microtubule fractions were isolated and analyzed by Western blot. Data are representative of three different experiments.
Separation of soluble and polymerized tubulins from MDA-MB231 cells was carried out as described by Minotti et al. (14) with minor modifications. Briefly, after drug exposure, about 5×10^6 cells in 100-mm petri dishes were washed with PBS at 37° C. and harvested in 3 ml of PBS containing 0.4 μg/ml of taxol using a rubber policeman.
Cells were centrifuged and lysed using 250 μl of microtubule-stabilizing buffer (20 mM Tris-HCl, pH 6.8, 140 mM NaCl, 1 mM MgCl2, 2 mM EDTA, 0.5% Nonidet P-40 and 0.4 μg/ml taxol), and then transferred to 1.5 ml microcentrifuge tubes. Samples were centrifuged at 12,000×g for 10 min at 4° C. and the supernatants containing soluble tubulin were placed in separate microcentrifuge tubes containing 250 μl of 2× Laemmli sample buffer (15). Pellets containing the polymerized tubulin were resuspended in 250 μl of water, followed by two freeze/thawing cycles, and the addition of 250 μl of 2× Laemmli sample buffer. Samples were analyzed by SDS-PAGE and immunoassay was performed as described below.
(§1) Samples (1×10^5 cells) were analyzed by 10% SDS-PAGE using the Laemmli system (15). Membranes were then incubated with PBSMT (PBS, pH 7.4, 5% fat-free dry milk and 0.1% Tween-20) for 1 h at room temperature, and then with 1:500 monoclonal anti-β-tubulin (clone TUB 2.1, Sigma) or 1:400 anti (clone no. SDL.3D10, Sigma) for 1 h. […] Membranes were washed with PBSMT and incubated with 1:2500 peroxidase-conjugated anti-mouse immunoglobulin (Amersham Canada, Oakville, Canada) in PBSMT for 30 min. Detection of the immunoblot was carried out with the ECL Western blotting detection reagent kit (Amersham Canada, Oakville, Canada).

MDA-MB-231 cells [2] = assay: cells; format: cell-based, human
Procedure: (§2) Human breast carcinoma cell line, MDA-MB-231, was obtained from the American Type Culture Collection (ATCC HTB-26; Bethesda, Md.). MDA-MB-231 cells were grown in RPMI 1640 medium supplemented with 10% bovine calf serum (Hyclone, Road Logan, Utah). Wild-type Chinese Hamster Ovary cells (CHO-10001) (7), colchicine- and vinblastine-resistant (CHO-VV 3-2) (8) and taxol-resistant (CHO-TAX 5-6) cells (9) were generously provided by Dr. Fernando Cabral (University of Texas Medical School, Houston, Tex.). These cells were cultured in RPMI 1640 containing 10% fetal bovine serum. SK—N—SH human neuroblastoma cells, (ATCC HTB-11; Bethesda, Md.) were cultured in MEM medium supplemented with 2 mM L-glutamine, 1.5 g/liter sodium bicarbonate, 0.1 mM non-essential amino acids, 1 mM sodium pyruvate and 10% fetal bovine serum. Cells were cultured in a humidified atmosphere at 37° C. in 5% CO2.
(§3) Cytotoxicity was assessed using the MTT assay (3-(4,5-dimethylthiazol-2-yl)-2,5-diphenyltetrazolium bromide) as described by Carmichael et al. (12).

[3] = Kinetics of alkylation of 4-(4-nitrobenzyl)pyridine (colorimetric assay); format: physicochemical; conditions: 80° C., pH 4.3, absorbance at 570 nm, linear regression, mean ± SD
Procedure: The rate constant of alkylation (K′) of CEU derivatives and chlorambucil was evaluated by a […] assay as described by Bardos et al (13). Briefly, 1 ml of a 10% (v/v) solution of 4-(4-nitrobenzyl)pyridine in ethanol and 1 ml of 50 mM sodium acetate (pH 4.3) were added to an ethanol solution (95%) containing 400 nmol per ml of either chlorambucil or CEU and heated to 80° C. in a shaking water bath for 60, 90, 120 or 150 min. The reaction was stopped by cooling the mixtures on ice for 5 min. Then, 1.5 ml of 0.1 M KOH: ethanol (1:2, v/v) were added to the reaction mixture. Samples were vortexed for 12 sec and set aside for 2.5 min prior to reading the absorbance at 570 nm. The values were compared with those obtained using a blank sample containing all reagents except the alkylating agent.

MDA-MB-231 cells [4] = assay: Cell cycle analysis by propidium iodide flow cytometry; format: cell-based, human; conditions: CEU derivatives at 30 μM, 24 h; flow cytometry
Procedure: FIG. 1. Effect of CEU derivatives on cell cycle. Exponentially growing MDA-MB-231 cells were incubated in the absence or presence of 30 μM of either 4-tBCEU, 4-iPCEU or 4-sBCEU for 24 and 48 h, respectively, at 37° C. The cell cycle was evaluated using propidium iodide staining and flow cytometric analysis. Data are representative of three independent experiments.
Following incubation of MDA-MB-231 cells with 4-tBCEU, 4-iPCEU or 4-sBCEU, the cells were harvested, resuspended in 1 ml PBS and fixed by the addition of 2.4 ml of ice cold anhydrous ethanol. Then, 5×10^5 cells from each sample were centrifuged for 3 min at 1000×g. Cell pellets were resuspended in PBS containing 50 μg/ml of PI and 40 U/ml of ribonuclease A (Boehringer Mannheim, Laval, Calif.). Mixtures were incubated at room temperature for 30 min and cell cycle distribution was analyzed using an Epics Elite ESP flow cytometer (Coulter Corporation, Miami, Fla., USA).
The effect of CEU, namely 4-tBCEU, 4-PCEU and 4-sBCEU, on the cell cycle was analyzed. To this end, exponentially growing MDA-MB-231 cells were treated with 30 μM 4-tBCEU, 4-iPCEU or 4-sBCEU for 24 or 48 h followed by an evaluation of cell cycle distribution by flow cytometry using propidium iodide, a fluorescent DNA dye. […] Induction of mitosis blockage in prophase by CEU derivatives was confirmed by mitotic index analysis as described by Drouin (22).

[5] = system: CHO 10001 cells (wild-type); assay: MTT cytotoxicity on wild-type CHO cells; format: cell-based, Chinese hamster; conditions: Cricetulus griseus, CHO10001; wild-type CHO cells, 120 h, MTT, mean ± SD; read-out: IC50 CHO 10001
Procedure: as §2, with “Wild-type Chinese Hamster Ovary cells (CHO-10001) (7), colchicine- and vinblastine-resistant (CHO-VV 3-2) (8) and taxol-resistant (CHO-TAX 5-6) cells (9) were generously provided by Dr. Fernando Cabral (University of Texas Medical School, Houston, Tex.).” left out
as §3
(§4) The cytotoxicity of 4-tBCEU, 4-iPCEU and 4-sBCEU in two CHO cell lines having differential sensitivity to antmicrotubule agents was evaluated. These cell lines are derived from parental CHO-10001 cells and express mutated tubulins.

CHO VV 3-2 cells = assay: MTT cytotoxicity on vinblastine- and colchicine-resistant CHO cells expressing mutated tubulin; format: cell-based, Chinese hamster; conditions: Cricetulus griseus, CHO-VV 3-2; vinblastine- and colchicine-resistant CHO cells, 120 h, MTT, mean ± SD; read-out: IC50 CHO VV 3-2
Procedure: as §2, with “Wild-type Chinese Hamster Ovary cells (CHO-10001) (7), colchicine- and vinblastine-resistant (CHO-VV 3-2) (8) and taxol-resistant (CHO-TAX 5-6) cells (9) were generously provided by Dr. Fernando Cabral (University of Texas Medical School, Houston, Tex.).” left out
as §3, §4

β-tubulin [6] = assay: Competition with antimicrotubule agents for the site of β-tubulin alkylation; format: cell-based, human; conditions: for effect of competitor on formation of modified β-tubulin induced by CEU: MDA-MB-231 cells, 48 h, 30 μM CEU with 5 μM taxol, colchicine or vinblastine or 100 μM iodoacetamide
Procedure: FIG. 6. Identification of the site of alkylation of β-tubulin by CEU: competition with antimicrotubule agents. […] Data are representative of three different experiments.
as §1
The latter agents were used because they have well defined binding sites on β-tubulin (24-28) and because they were expected to inhibit alkylation by CEU if they shared a common binding site. […] These putative alkylation sites are two nucleophilic mercapto groups of cysteine residues at positions 239 and 354, respectively (25). To assess the possible alkylation of these mercapto residues by CEU, MDA-MB-231 cells were treated with 4-tBCEU in the presence of iodoacetamide, a specific thiol alkylating agent (31, 32). […] Similar experiments were carried out using EBI, a bifunctional alkylating agent that specifically induces cross-linking between Cys239 and Cys354 of β-tubulin (32).

CHO TAX 5-6 cells = assay: MTT cytotoxicity on taxol-resistant CHO cells expressing mutated tubulin; format: cell-based, Chinese hamster; conditions: Cricetulus griseus, CHO-TAX 5-6; taxol-resistant CHO cells, 120 h, MTT, mean ± SD; read-out: IC50 CHO TAX 5-6
Procedure: as §2, with “Wild-type Chinese Hamster Ovary cells (CHO-10001) (7), colchicine- and vinblastine-resistant (CHO-VV 3-2) (8) and taxol-resistant (CHO-TAX 5-6) cells (9) were generously provided by Dr. Fernando Cabral (University of Texas Medical School, Houston, Tex.).” left out
as §3, §4

## 4-sec-butyl[3-(ethyl)ureido]benzene [Example 4-sBEU]
β-tubulin [1]
  microtubule depolymerization: no depolymerization
  formation of modified β-tubulin (second immunoreactive band of lower Mr): no effect on β-tubulin
MDA-MB-231 cells [2]
  cytotoxicity in words (active / inactive CEU): inactive

## 4-tert-butyl[3-(2-chloropropyl)ureido]benzene [Example 4-tBCPU]
β-tubulin [1]
  microtubule depolymerization: inactive
MDA-MB-231 cells [2]
  cytotoxicity in words (active / inactive CEU): inactive

## O=C(O)CCCc1ccc(N(CCCl)CCCl)cc1 [CBL, Chlorambucil, reference compound]
[3]
  K′ (constant of alkylation of 4-(4-nitrobenzyl)pyridine): 38.9 ± 5.1^a
MDA-MB-231 cells [2]; Homo sapiens, MDA-MB-231, read-out: IC50 (μM) MDA-MB-231
  IC50: 9.3 ± 3.5 µM

## O=C(NCCCl)Nc1ccccc1 [CEU]
β-tubulin [1]
  microtubule depolymerization: inactive
MDA-MB-231 cells [2]
  cytotoxicity in words (active / inactive CEU): inactive

## COc1cc2c(c(OC)c1OC)-c1ccc(OC)c(=O)cc1[C@@H](NC(C)=O)CC2 [Colchicine, reference compound]
MDA-MB-231 cells [4]
  accumulation of cells in G2+M: G2+M block

## CCc1ccccc1NC(=O)NCCCl [Example 2-ECEU, 2-ethyl[3-(2-chloroethyl)ureido]benzene]
β-tubulin [1]
  microtubule depolymerization: no depolymerization
  formation of modified β-tubulin (second immunoreactive band of lower Mr): no effect on β-tubulin
MDA-MB-231 cells [2]
  cytotoxicity in words (active / inactive CEU): inactive

## CCc1cccc(NC(=O)NCCCl)c1 [Example 3-ECEU, 3ethyl[3-(2-chloroethyl)ureido]benzene]
β-tubulin [1]
  microtubule depolymerization: delayed in time
  formation of modified β-tubulin (second immunoreactive band of lower Mr): delayed in time

## CCc1ccc(NC(=O)NCCCl)cc1 [Example 4-ECEU, 4-ethyl(3-(2-chloroethyl)ureido]benzene]
β-tubulin [1]
  microtubule depolymerization: delayed in time
  formation of modified β-tubulin (second immunoreactive band of lower Mr): delayed in time

## CCNC(=O)Nc1ccc(C(C)C)cc1 [Example 4-iPEU, 4-iso-propyl[3-(ethyl)ureido]benzene]
β-tubulin [1]
  microtubule depolymerization: no depolymerization
  formation of modified β-tubulin (second immunoreactive band of lower Mr): no effect on β-tubulin

## COc1ccc(NC(=O)NCCCl)cc1 [Example 4-methoxyCEU, 4-methoxy[3-(2-chloroethyl)ureido]benzene]
β-tubulin [1]
  microtubule depolymerization: inactive

## CCNC(=O)Nc1ccc(C(C)(C)C)cc1 [Example 4-tBEU, 4-tert-butyl[3-(ethyl)ureido]benzene]
β-tubulin [1]
  microtubule depolymerization: no depolymerization
  formation of modified β-tubulin (second immunoreactive band of lower Mr): no effect on β-tubulin

## CC(=O)O[C@H]1C(=O)[C@@]2(C)[C@H]([C@H](OC(=O)c3ccccc3)[C@]3(O)C[C@H](OC(=O)[C@H](O)[C@@H](NC(=O)c4ccccc4)c4ccccc4)C(C)=C1C3(C)C)[C@]1(OC(C)=O)CO[C@@H]1C[C@@H]2O [Taxol, reference compound]
[5]
  IC50: 1700 ± 300 nM
CHO VV 3-2 cells
  IC50: 1100 ± 200 nM
β-tubulin [6]
  effect of competitor on formation of modified β-tubulin induced by CEU: abrogated the formation of modified β-tubulin
β-tubulin [1]
  formation of modified β-tubulin (second immunoreactive band of lower Mr): no such band
CHO TAX 5-6 cells
  IC50: 6100 nM

## CC[C@]1(O)C[C@@H]2CN(CCc3c([nH]c4ccccc34)[C@@](C(=O)OC)(c3cc4c(cc3OC)N(C)[C@H]3[C@@](O)(C(=O)OC)[C@H](OC(C)=O)[C@]5(CC)C=CCN6CC[C@]43[C@@H]65)C2)C1 [Vinblastine, reference compound]
[5]
  IC50: 30 ± 3 nM
CHO VV 3-2 cells
  IC50: 94 ± 3 nM
β-tubulin [6]
  effect of competitor on formation of modified β-tubulin induced by CEU: but not vinblastine, prevented formation of the additional β-tubulin band; also recorded: but not vinblastine, prevented the formation of modified β-tubulin
MDA-MB-231 cells [4]
  accumulation of cells in G2+M: G2+M block
β-tubulin [1]
  formation of modified β-tubulin (second immunoreactive band of lower Mr): no such band
CHO TAX 5-6 cells
  IC50: 21 ± 3 nM

## NC(=O)CI [iodoacetamide]
β-tubulin [6]; 24 h with 5 μM colchicine, 5 μM vinblastine or 100 μM iodoacetamide, then 100 μM EBI for 2 h
  effect of pre-treatment on β-tubulin alteration induced by EBI: abrogated
β-tubulin [6]
  effect of competitor on formation of modified β-tubulin induced by CEU: completely prevented β-tubulin alkylation by 4-tBCEU
